{
  "source": "patent US20050197356A1",
  "about": "“Non-immunosuppressive immunophilin ligands as neuroprotective and/or neuroregenerative agents” (Wyeth, priority 2004, published 2005)",
  "molecules": {"B1": {"name": "GDNF: GDNF, 10 ng/mL, positive control that afforded maximum protection (protein, UniProt P39905 78-211, looked up)", "Glial cell line-derived …": "SPDKQMAVLPRRERNRQAAAANPENSRGKGRRGQRGKNRGCVLTAIHLNVTDLGLGYETKEELIFRYCSGSCDAAETTYDKILKNLSRNRRLVSDKVGQACCRPIAFDDDLSFLDDNLVYHILRKHSAKRCGCI"}},
  "assay_type_in_all_cases": "cell-based, rat",
  "key": {"[1]": {"test_system": "cultured dopaminergic neurons", "experiment": "High-affinity 3H-dopamine uptake after MPP+ induced toxicity in mesencephalic dopaminergic neuron cultures", "description": "Mesencephalic dopaminergic neuron cultures were prepared as previously described in Pong et al., J Neurochem. 69: 986-994 (1997). Embryonic day 15 (E15) rat fetuses were collected and dissected in ice-cold phosphate-buffered saline (PBS). The ventral piece of tissue compromising the mesencephalic dopaminergic region was dissected out. Dissected pieces of tissue were pooled together and transferred to an enzymatic dissociation medium containing 20 IU/ml papain in Earle's balanced salt solution (Worthington Biochemical, Freehold, N.J., U.S.A.) and incubated for 60 minutes at 37° C. After enzymatic dissociation, the papain solution was aspirated and the tissue mechanically triturated with a fire-polished glass Pasteur pipette in complete medium [equal volumes of minimum essential medium (MEM) and F-12 nutrient mixture (Gibco BRL) supplemented with 0.1 mg/ml apotransferrin and 2.5 μg/ml insulin] containing 2,000 IU/ml DNase and 10 mg/ml ovomucoid protease inhibitor.\nFor dopamine uptake experiments, single-cell suspensions in complete media were seeded on poly-L-ornithine and laminin coated 24-well plates. The cultures were maintained for seven days prior to experimentation. Cultures were pretreated with various concentrations of the compound of formula (I) (washed with PBS and diluted with media to concentrations of 1 nM to 1000 nM) for 24 hours, then exposed to 10 μM the neurotoxin 1-methyl-4-phenylpyridinium (MPP^+) for 1 hour to assess the neuroprotective effect of the compound of formula (I) in cell culture. Following the 1 hour incubation, media was exchanged three times and fresh compound was added for an additional 48 hours.\nMore particularly, after 48 hours growth of mesencephalic dopaminergic neuron cultures following MPP^+ exposure, high-affinity ^3H-dopamine uptake was performed using a modified method described by Prochiantz et al., Nature 293: 570-572 (1981). Cultures were washed with pre-warmed phosphate-buffered saline (PBS) containing 5.6 mM glucose and 1 mM ascorbic acid. Cultures were then incubated for 15 minutes at 37° C. with 50 nM ^3H-dopamine (31 Ci/mmol, Du Pont-NEN, Wilmington, Del., U.S.A.). The cultures were washed twice with buffer and lysed with 0.5 N NaOH. The lysate was transferred to a scintillation vial containing Ultima Gold scintillation cocktail and radioactivity was determined with a liquid scintillation counter. Alternatively, culture lysates can be washed twice with buffer, incubated for 2 hours at room temperature with Optiphase Supermix scintillation cocktail (Wallac Scintillation Products, Gaithersburg, Md., USA), and radioactivity measured with a liquid scintillation counter.\nMPP^+-induced neurotoxicity in a ^3H-dopamine uptake cell assay was measured. Neuroprotective effects in cell culture were measured by addition of the compound (1 nM to 1000 nM) to the culture in the presence of MPP."}, "[2]": {"test_system": "cultured cortical neurons", "experiment": "Neurofilament content in cultured cortical neurons (neurofilament antibody, colorimetric)", "settings": "72 hours", "description": "(§1) Dissociated cortical neuron cultures were prepared as previously described [Pong et al., Exp Neurol. 2001 September; 171(1):84-97 (2001)]. Briefly, embryonic day 15 rat fetuses were collected and dissected in ice-cold PBS. Dissected cortices were pooled together and transferred to an enzymatic dissociation medium containing papain. After 30 min, the tissue was mechanically triturated with a fire-polished glass Pasteur pipette. Single-cell suspensions in complete media were seeded on poly-L-ornithine and laminin coated 96-well plates. 24 hours later, cultures were treated with various concentrations of compound of formula (I) for 72 hours. The cultures were then fixed and stained with a neurofilament primary antibody and a peroxidase-tagged secondary antibody. A peroxidase substrate (K-Blue Max) was added and the colorimetric change was measure on a colorimetric plate reader.\nas §1, with “(Pong” for “[Pong”, “2001).” for “Exp Neurol. 2001 September; 171(1):84-97 (2001)].”, “ploy-L-ornithine” for “poly-L-ornithine”, “compound” for “compound of formula (I)”, “calorimetric” for “colorimetric”"}, "[3]": {"test_system": "cultured cortical neurons", "experiment": "Neurite outgrowth (ENO algorithm, Cellomics ArrayScan) in cultured cortical neurons", "settings": "72 hours", "description": "Dissociated cortical neuron cultures were prepared as previously described (Pong et al., cited above, 2001). Briefly, embryonic day 15 rat fetuses were collected and dissected in ice-cold PBS. Dissected cortices were pooled together and transferred to an enzymatic dissociation medium containing papain. After 30 minutes, the tissue was mechanically triturated with a fire-polished glass Pasteur pipette. Single-cell suspensions in complete media were seeded on poly-L-ornithine and laminin coated 96-well plates. After 24 hours, cultures were treated with various concentrations of the compound of formula I for 72 hours. The cultures were then fixed and stained with an anti-tubulin primary antibody (TUJ-1) and a fluorescent-tagged secondary antibody. Neurite outgrowth was determined by using the Enhanced Neurite Outgrowth (ENO) algorithm with the Cellomics ArrayScan and expressed as total neurite length per cell."}, "[4]": {"test_system": "cultured dorsal root ganglia", "experiment": "Neurite outgrowth (ENO algorithm, Cellomics ArrayScan) in cultured dorsal root ganglia", "settings": "72 hours", "description": "Dissociated dorsal root ganglia cultures were prepared as previously described [A. Wood et al., “Stimulation of neurite outgrowth by immunophilin ligands: quantitative analysis by Cellomics Array scan” Society for Neuroscience (2004), abstract 104.3] Briefly, postnatal day 3-5 rat pups were euthanized. The spinal columns were removed and individual dorsal root ganglia (DRG) were dissected out. Dissected DRG were pooled together and transferred to an enzymatic dissociation medium containing papain. After 60 minutes, the tissue was mechanically triturated with a fire-polished glass Pasteur pipette. Single-cell suspensions in complete media were seeded on poly-L-ornithine and laminin coated 96-well plates. After 24 hours, cultures were treated with various concentrations of the compound of formula I for 72 hours. The cultures were then fixed and stained with an anti-tubulin primary antibody (TUJ-1) and a fluorescent-tagged secondary antibody. Neurite outgrowth was determined by using the Enhanced Neurite Outgrowth (ENO) algorithm with the Cellomics ArrayScan and expressed as total neurite length per cell."}},
  "data": [
    {"molecule": "CC/C1=C\\CC(/C(C)=C/C(C)C(C)O)OC(=O)C2CCCCN2C(=O)C(=O)C2(O)OC(CCC2C)CC(O)C(C)C(O)CC(O)CC(O)/C(C)=C/C(C)CC(C)C1O", "note": "(centres unmarked) [meridamycin]", "values": [
      {"measurement": "3H-DOPAMINE UPTAKE (% UNTREATED CONTROL)", "setting": "[1]; 1 nM meridamycin, 24 h pretreatment, 10 uM MPP+ 1 h, compound further 48 h", "result": 47, "unit": "%"},
      {"measurement": "3H-DOPAMINE UPTAKE (% UNTREATED CONTROL)", "setting": "[1]; 10 nM meridamycin, 24 h pretreatment, 10 uM MPP+ 1 h, compound further 48 h", "result": 51, "unit": "%"},
      {"measurement": "3H-DOPAMINE UPTAKE (% UNTREATED CONTROL)", "setting": "[1]; 100 nM meridamycin, 24 h pretreatment, 10 uM MPP+ 1 h, compound further 48 h", "result": 51, "unit": "%"},
      {"measurement": "3H-DOPAMINE UPTAKE (% UNTREATED CONTROL)", "setting": "[1]; 1000 Nm meridamycin, 24 h pretreatment, 10 uM MPP+ 1 h, compound further 48 h", "result": 64, "unit": "%"},
      {"measurement": "EC50", "setting": "[1]; Rattus norvegicus, Neuron, relative to maximum protection (84% uptake) afforded by 10 ng/mL GDNF, read-out: EC50 of neuroprotection against MPP+-induced neurotoxicity", "result": 555, "unit": "nM"},
      {"measurement": "NEUROFILAMENT CONTENT (FOLD-INCREASE ABOVE UNTREATED CONTROL)", "setting": "[2]; 10 nM meridamycin", "result": 1.71, "unit": "fold"},
      {"measurement": "NEUROFILAMENT CONTENT (FOLD-INCREASE ABOVE UNTREATED CONTROL)", "setting": "[2]; 100 nM meridamycin", "result": 2.24, "unit": "fold"},
      {"measurement": "NEUROFILAMENT CONTENT (FOLD-INCREASE ABOVE UNTREATED CONTROL)", "setting": "[2]; 1 μM meridamycin", "result": 2.32, "unit": "fold"},
      {"measurement": "NEUROFILAMENT CONTENT (FOLD-INCREASE ABOVE UNTREATED CONTROL)", "setting": "[2]; 10 μM meridamycin", "result": 2.56, "unit": "fold"},
      {"measurement": "EC50", "setting": "[2]; Rattus norvegicus, Cortical neurone, cultured cortical neurons, read-out: EC50 of increased neuronal survival (neurofilament content)", "result": 12, "unit": "nM"},
      {"measurement": "Total Neurite Length (% Above Control)", "setting": "[3]; 10 nM", "result": 19, "unit": "%"},
      {"measurement": "Total Neurite Length (% Above Control)", "setting": "[3]; 100 nM", "result": 40, "unit": "%"},
      {"measurement": "Total Neurite Length (% Above Control)", "setting": "[3]; 1 μM", "result": 113, "unit": "%"},
      {"measurement": "Total Neurite Length (% Above Control)", "setting": "[3]; 10 μM", "result": 152, "unit": "%"},
      {"measurement": "Total Neurite Length (% Above Control)", "setting": "[4]; 10 nM", "result": 4, "unit": "%"},
      {"measurement": "Total Neurite Length (% Above Control)", "setting": "[4]; 100 nM", "result": 9, "unit": "%"},
      {"measurement": "Total Neurite Length (% Above Control)", "setting": "[4]; 1 μM", "result": 14, "unit": "%"},
      {"measurement": "Total Neurite Length (% Above Control)", "setting": "[4]; 10 μM", "result": 24, "unit": "%"}
    ]},
    {"molecule": "C[n+]1ccc(-c2ccccc2)cc1", "note": "[MPP^+, 1-methyl-4-phenylpyridinium, reference compound]", "values": [
      {"measurement": "3H-DOPAMINE UPTAKE (% UNTREATED CONTROL)", "setting": "[1]; 10 uM MPP+ alone, 1 hour exposure, uptake 48 hours later", "result": 40, "unit": "%"}
    ]},
    {"molecule": "B1", "values": [
      {"measurement": "maximum protection (3H-dopamine uptake)", "setting": "[1]; 10 ng/mL GDNF, MPP+-induced neurotoxicity", "result": 84, "unit": "%"}
    ]}
  ]
}
